# Experiments:
# [1] = tested on: patients in the UK THIN database; experiment: Retrospective THIN cohort study: incidence of autoimmune diseases with mirtazapine exposure (Example 7); format: in vivo, human; conditions: exposed vs matched (2:1) non-exposed cohort
# From the text: Patients who were prescribed mirtazapine. 90 day ([…]) identified and compared to a matched patient cohort (2:1) not exposed to mirtazapine (n=372,822). Out models were adjusted for depression, use of other antidepressants, comorbidity status, smoking and alcohol consumption.
# [2] = tested on: hepatic CXCL10/IP-10, CXCL9/MIG, ICAM-1 and VCAM-1 expression; experiment: Immunohistochemistry of liver sections after mirtazapine treatment; format: in vivo, mouse
# Description: Male 8-10 week old C57BL/6 mice (Jackson Labs, Bar Harbor, Me.) were used. All procedures were approved by the University of Calgary Animal Care Committee (protocol numbers AC14-0129 and AC14-0128) and were performed in accordance with the guidelines of the Canadian Council on Animal Care. To delineate the impact of mirtazapine treatment upon liver immune cell numbers and phenotype, and upon cytokine/chemokine networks within the liver, mice were treated with mirtazapine 1-20 mg/kg intraperitoneally^13-15. Mirtazapine was suspended in 1% aqueous solution of Tween 80, whereas the control group received 1% aqueous solution of Tween 80. Blood and liver samples were collected 5 hours post-mirtazapine treatment (or 16 hours post-Con A treatment). The detailed experimental protocols, lists of antibodies and reagents used, flow cytometry gating, and immune cell phenotyping strategies, are described herein. Hepatic CXCL10/IP-10, CXCL9/MIG, ICAM-1 and VCAM-1 expression were determined using immunohistochemistry, as previously described. Briefly, following initial deparaffinization and rehydration of tissue sections, antigen retrieval was performed in lx Citrate buffer, PH 6.0 (Abcam) for IP-10/CXCL9 and MIG/CXCL9, or in 1X EDTA buffer pH 8.0 for ICAM1 and VCAM-1. In all cases slides were incubated in antigen retrieval buffer at 95-100° C. for 20 minutes. […] This was followed by incubation with biotinylated rabbit anti-goat, goat-anti rat or goat anti-rabbit secondary antibodies (at 1:150) for 1 hour at room temperature (Vector Labs). Negative staining controls were performed by omission of primary antibody, or by omission of both primary and secondary antibodies. […] This was followed by incubation with Vectastain Elite ABC kit (Vector Laboratories) for 30 min at room temperature. Color was developed with Nova Red Chromogen (ImmPACT NovaRED Peroxidase Substrate, Vector Lab, Burlingame, Calif.), after which sections were counterstained with hematoxylin (EMD Millipore). Mounted slides were converted to virtual slides with a BX61 VS virtual microscopy system equipped with an XC10 camera and VS ASW software (Olympus) (original magnification ×400). For ICAM-1, VCAM1, CXCL9/Mig, and CXCL10/IP10 expression, all scanned virtual slides of the sections were examined in a blinded fashion, and expression patterns evaluated and described.
# [3] = tested on: Con A-induced hepatitis; experiment: Concanavalin A (Con A) hepatitis model of immune-mediated liver injury; format: in vivo, mouse; conditions: for Con A-induced liver damage (plasma ALT levels): 1, 10, 20 mg/kg ip 1 hour before Con A
# Description: To determine whether mirtazapine treatment alters subsequent immune-mediated liver injury, we used the mouse model of concanavalin (Con A) hepatitis. The Con A model is a widely used and well characterized model of immune-mediated T cell-driven liver injury^16, 17. Mice were treated with mirtazapine 20 mg/kg ip and 1 hour later Con A (Sigma, St. Louis, Mo.) or PBS vehicle was injected intravenously at a dose of 13.5 mg/kg^17. Mice were sacrificed 16 hours following Con A administration and hepatitis determined biochemically (ALT) and histologically (H & E staining)^17, 18. In addition, to further characterize the effects of mirtazapine in the Con A model, we performed a mirtazapine dose response study with mirtazapine doses of 1, 10, and 20 mg/kg ip given 1 hour prior to Con A treatment.
# To assess liver injury, plasma alanine aminotransferase (ALT) activity was measured (Roche-Hitachi Modular-P800 apparatus; Roche, Mannheim, Germany). Additionally, formalin-fixed liver tissue slices were stained with Hematoxylin and Eosin (H&E) for microscopic examination. Extent of liver parenchymal necrosis was quantitated as previously described, using an Olympus XC10 camera (acquired using the Olympus VS-ASW software package; original magnification ×400). Images were later processed and selected images obtained at 25 or 50% magnification (corresponding to magnifications of 100x and 200X, respectively).
# Hepatic CXCL10/IP-10, CXCL9/MIG, ICAM-1 and VCAM-1 expression were determined using immunohistochemistry, as previously described. Briefly, following initial deparaffinization and rehydration of tissue sections, antigen retrieval was performed in lx Citrate buffer, PH 6.0 (Abcam) for IP-10/CXCL9 and MIG/CXCL9, or in 1X EDTA buffer pH 8.0 for ICAM1 and VCAM-1. In all cases slides were incubated in antigen retrieval buffer at 95-100° C. for 20 minutes. Endogenous peroxidase and endogenous biotin were blocked using 3% H2O2 and an avidin/biotin blocking kit (Vector Laboratories, Burlingame, Calif.) respectively, and then incubated with primary antibodies (Rabbit IgG polyclonal against MIG at 1:200; polyclonal goat IgG against IP-10/CXCL10 at 1:40; rat monoclonal against ICAM-1 clone YN1/1.7.4 at 1:200; and rabbit monoclonal against VCAM1 clone EPR5047 at 1:1000) overnight at 4° C. This was followed by incubation with biotinylated rabbit anti-goat, goat-anti rat or goat anti-rabbit secondary antibodies (at 1:150) for 1 hour at room temperature (Vector Labs). Negative staining controls were performed by omission of primary antibody, or by omission of both primary and secondary antibodies. […] This was followed by incubation with Vectastain Elite ABC kit (Vector Laboratories) for 30 min at room temperature. Color was developed with Nova Red Chromogen (ImmPACT NovaRED Peroxidase Substrate, Vector Lab, Burlingame, Calif.), after which sections were counterstained with hematoxylin (EMD Millipore). Mounted slides were converted to virtual slides with a BX61 VS virtual microscopy system equipped with an XC10 camera and VS ASW software (Olympus) (original magnification ×400). For ICAM-1, VCAM1, CXCL9/Mig, and CXCL10/IP10 expression, all scanned virtual slides of the sections were examined in a blinded fashion, and expression patterns evaluated and described.
# To delineate the effect of mirtazapine treatment on hepatic cytokine/chemokine expression a Luminex® assay was used using methods as previously described. Livers were collected 5 hours after mirtazapine or vehicle treatment. A panel of mouse cytokines/chemokines were simultaneously measured in liver homogenate samples using a mouse MILLIPLEX kit (Millipore, USA) according to the manufacturer's protocol. The multiplexing analysis was performed using the Luminex 100 system (Luminex®, USA; Eve Technologies Corporation, Calgary, Canada). Total protein concentrations in liver homogenates were quantified using a BCA Protein Assay kit (Pierce, USA) according to manufacturers instructions. […]
smiles,measurement,setting,value
CN1CCN2c3ncccc3Cc3ccccc3C2C1 (centres unmarked) [Mirtazapine],"Adjusted Incidence Rate Ratio (adjusted IRR), Multiple Sclerosis",[1],0.80
same,"Adjusted Incidence Rate Ratio (adjusted IRR), Psoriasis",[1],0.93
same,"Adjusted Incidence Rate Ratio (adjusted IRR), Rheumatoid Arthritis",[1],0.55
same,Hepatic CXCL10 expression (IHC),"[2]; hepatocytes and sinusoidal endothelium, vs vehicle",strikingly increased
same,Hepatic ICAM-1 expression (IHC),"[2]; normal liver, vs vehicle",did not notably alter ICAM-1 expression
same,Hepatic VCAM-1 expression (IHC),"[2]; normal liver, vs vehicle",enhanced VCAM-1 staining intensity in sinusoidal endothelium and a marked increase in VCAM-1 expression intensity in sinusoidal immune cells
same,Hepatic CXCL9 staining (IHC),[2]; vs vehicle treated mice,increased CXCL9 staining mainly within hepatocytes
same,"Histological liver damage (liver cell necrosis, H&E)","[3]; 20 mg/kg, 16 hrs post-Con A",only a minimal hepatocyte damage
same,Con A-induced liver damage (plasma ALT levels),[3]; 16 hrs post-Con A,markedly attenuated
same,Con A-induced liver damage (plasma ALT levels),"[3]; 16 hrs post-Con A, listed as mirtazapine",striking reduction in liver damage
same,Hepatic CXCL10 levels,"[3]; Con A treated mice, 20 mg/kg",significantly augmented
same,Hepatic IL-10 levels,"[3]; Con A treated mice, 20 mg/kg",significantly higher
same,Hepatic TNFα and IFNγ levels,"[3]; Con A treated mice, 20 mg/kg",significantly reduced
same,"Hepatic levels of IL-6, IL-9 and LIF","[3]; Con A treated mice, 20 mg/kg",significantly reduced
same,"Hepatic levels of the chemokines CXCL9, CXCL2, CXCL1, CCL11 and CCL2","[3]; Con A treated mice, 20 mg/kg",reduced
same,Con A-induced increases in ICAM-1 expression in hepatic central veins and sinusoidal endothelium,"[3]; IHC, 20 mg/kg",almost completely prevented
same,Con A-induced increases in hepatic VCAM-1 expression,"[3]; IHC, 20 mg/kg",minimal effect

# From patent US11510928B2, “Use of mirtazapine in the treatment of inflammatory disorders, autoimmune disease and PBC” (UTI Limited Partnership, priority 2017, dated 2022)
